Experimental data as given in patent publication EP0194548A2, “Sulfonylaminoethyl compounds, medicines containing these compounds and process for their preparation” (Dr. Karl Thomae GmbH, priority 1985, dated 1986).

How the values were obtained:
[1] = test system: Thrombozytenaggregation in plättchenreichem Plasma; assay: Collagen-induced platelet aggregation (method of BORN and GROSS) in platelet-rich plasma; type: cell-based, Versuchspersonen; details: 10 min, plasma incubated 10 min with substance at 37°C, 50% change of optical density
Excerpt: Die Thrombozytenaggregation wird nach der Methode von BORN und GROSS (J. Physiol. 170, 397 (1964)) in plättchenreichem Plasma gesunder Versuchspersonen gemessen. Zur Gerinnungshemmung wird das Blut mit […] 3,14 % im Volumenverhältnis 1:10 versetzt
Collagen-induzierte Aggregation
Der Verlauf der Abnahme der optischen Dichte der Plättchensuspension wird nach Zugabe der aggregationsauslösenden Substanz photometrisch gemessen und registriert. Aus dem Neigungswinkel der Dichtekurve wird auf die Aggregationsgeschwindigkeit geschlossen. Der Punkt der Kurve, bei dem die größte Lichtdurchlässigkeit vorliegt, dient zur Berechnung der "optical dens^ity".
Die Collagen-Menge wird möglichst gering gewählt, aber doch so, daß sich eine irreversibel verlaufende Reaktionskurve ergibt. Verwendet wird das handelsübliche Collagen der Firma Hormonchemie, München.
Vor der Collagen-Zugabe wird das Plasma jeweils 10 Minuten mit der Substanz bei 37°C inkubiert.
Aus den erhaltenen Meßzahlen wird graphisch eine EC50 berechnet, die sich auf eine 50%ige Änderung der "optical density" im Sinne einer Aggregationshemmung bezieht.

[2] = test system: Mäusen; assay: Orientating acute toxicity after a single oral dose; type: in vivo; details: mice, groups of 10, observation time 14 days
Excerpt: Die akute Toxizität der zu untersuchenden Substanzen wurde orientierend an Gruppen von je 10 Mäusen nach oraler Gabe einer Einzeldosis bestimmt (Beobachtungszeit 14 Tage): […]

[3] = test system: Mäusen; assay: Prolongation of bleeding time (tail tip cut) after oral dosing; type: in vivo; details: conscious mice, 10 mg/kg p.o., 1 hour after dosing, 5 animals per test, versus controls without substance
Procedure: Da im Falle einer Verletzung die erste rasche Blutstillung durch Thrombozyten geschieht, läßt sich beim Setzen einer standardisierten Verletzung die Funktion der Thrombozylen mit Hilfe der Messung der Blutungszeit gut bestimmen. Die normale Blutungszeit beträgt beim Menschen etwa 1 bis 3 min., setzt aber leistungsfähige und in genügender Zahl vorhandene Thrombozyten voraus. Bei einer normalen Thrombozytenzahl weist also eine verlängerte Blutungszeit auf eine gestörte Funktion der Thrombozyten hin. Wir finden dies z.B. bei einigen angeborenen Thrombozytenfunktionsstörungen. Will man auf der anderen Seite die Neigung zu spontanem Zusammenballen der Thrombozyten mit der Folge von Gefäßverschlüssen im arteriellen System durch Medikamente verhindern, so muß folglich bei einer erfolgreichen thrombozytenwirksamen Therapie die Blutungszeit unter Substanzeinfluß verlängert werden. Bei einer thrombozytenwirksamen Substanz ist also eine Verlängerung der Blutungszeit und - da das plasmatische Gerinnungssystem ja nicht berührt wird -eine normale Blutgerinnungszeit zu erwarten.
Zur Bestimmung der Blutungszeit wurden die zu untersuchenden Substanzen wachen Mäusen in einer Dosis von 10 mg/kg p.o. appliziert. Nach einer Stunde wurde von der Schwanzspitze jedes Tieres ca. 0,5 mm abgeschnitten und das austretende Blut in Abständen von 30 Sekunden bis zum Sistieren der Blutung vorsichtig mit einem Filterpapier abgetupft. Die Zahl der so erhaltenen Bluttropfen ergibt ein Maß für die Blutungszeit (5 Tiere pro Versuch). Die folgenden Zahlenangaben bedeuten Prozent-Verlängerung gegenüber Kontrollen ohne Substanzgabe: […]

SMILES | EC50 [1] | Orientierende akute Toxizität ([2]; single oral dose 1.000 mg) | Verlängerung der Blutungszeit in % nach 1 Stunde [3] | Orientierende akute Toxizität ([2]; single oral dose 250 mg)
O=C(O)CCC(=O)c1ccc(CCNS(=O)(=O)c2ccc(Cl)cc2)cc1 [Substanz A, 3-[4-(2-(4-Chlorbenzolsulfonyl)-aminoäthyl)-benzoyl]-propionsäure] | 4000 nM | 1.000 mg (0 von 10 Tieren gestorben) | 108% | 
COCCOC(=O)CCC(=O)c1ccc(CCNS(=O)(=O)c2ccccc2)cc1 [Substanz B, 3-[4-(2-Benzolsulfonylaminoäthyl)-benzoyl]-propionsäure-ß-methoxyäthylester] | > 10000 nM | 1.000 mg (0 von 10 Tieren gestorben) | 110% | 
O=C1CCC(c2ccc(CCNS(=O)(=O)c3ccccc3)cc2)=NN1 [Substanz C, 6-[4-(2-Benzoylsulfonylaminoäthyl)-phenyl]-4,5-dihydro-pyridazin-(2H)-3-on] | 3300 nM | 1.000 mg (0 von 10 Tieren gestorben) | 145% | 
Cc1ccc(S(=O)(=O)NCCc2ccc(C3=NNC(=O)CC3C)cc2)cc1 (stereo not drawn) [Substanz D, 6-[4-(2-(p-Toluolsulfonyl)-aminoäthyl)-phenyl]-5-methyl-4,5-dihydro-pyridazin-(2H)-3-on] | 2400 nM | 1.000 mg (0 von 10 Tieren gestorben) | 187% | 
O=C1CCC(c2ccc(OCCNS(=O)(=O)c3ccccc3)cc2)=NN1 [Substanz E, 6-[4-(2-Benzolsulfonylaminoäthoxy)-phenyl]-4,5-dihydro-pyridazin-(2H)-3-on] | 3000 nM | 1.000 mg (0 von 10 Tieren gestorben) | 233% | 
O=C(O)CCC(=O)c1ccc(CCNS(=O)(=O)c2ccccc2)cc1 [Substanz F, 3-[4-(2-Benzolsulfonylamino-äthyl)-benzoyl]-propionsäure] | 3000 nM |  | >266% | 250 mg (0 von 10 Tieren gestorben)
